Where two headings read alike, the source gives them in different places. Where a SMILES comes first, the peptide text is derived from it.
T1: human CIB2 (Homo sapiens, UniProt O75838)
T1 construct: made in house
T1 sequence (O75838 1-187): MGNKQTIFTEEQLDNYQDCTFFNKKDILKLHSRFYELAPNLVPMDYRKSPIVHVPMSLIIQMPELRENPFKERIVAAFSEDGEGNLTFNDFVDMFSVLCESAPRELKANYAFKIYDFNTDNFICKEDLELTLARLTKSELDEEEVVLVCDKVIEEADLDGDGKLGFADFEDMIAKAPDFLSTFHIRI

B1: CIB2: Recombinant human CIB2, Ca^2+ and Mg^2+-binding protein (protein)
chain: T1 sequence (O75838 1-187)
modifications: left off: His tag, end not stated, cleaved

Tests used:
[1] = molecular target: T1, human CIB2; assay: SPR interaction of α7B peptides with immobilized CIB2; format: binding; conditions: for ka2 association rate constant, CIB2-α7B_M-CIB2 complex / koff / Kd: His-CIB2; for ka2 association rate constant, CIB2-α7B_M-CIB2 complex / kon / koff: average ± SEM; for kon: His-CIB2 on His-cap chip, peptide 230 nM–30 μM, read-out: ka1 association rate constant, CIB2-α7B_M complex; for Kd: ratio kd1/ka1, read-out: KD^app1 apparent affinity for the first binding event
From the text: SPR was also used to study quantitatively the interaction of CIB2 with one of its established targets, namely the cytoplasmic domain of integrin α7B[3],[7]. Three different peptides were used in the interaction experiments. A peptide corresponding to the membrane proximal segment of the cytoplasmic domain of α7B integrin (α7B_M), another peptide with the same amino acid content, but randomized sequence (α7B_Scrb) and a peptide covering the C-terminal region of the cytoplasmic domain of α7B integrin (α7B_C). Three different approaches were used. In a first approach, His-tagged CIB2 was initially coupled to the surface of a His-cap sensor chip (see Methods), thus ensuring homogeneous site-specific orientation, and then blocked via standard amine coupling. […] The minor differences in the spectra at the level of the phenylalanine band can be ascribed to the TEV-protease recognition site (ENLYFQ), uncleaved in the His-tagged protein. […] In a third approach, we used the same low levels of CIB2 immobilization via amine coupling described in the experiments to probe CIB2 dimerization (100–200 RU) and flowed the three peptides.
The second approach (direct peptide immobilization) led to very low signals and unreproducible results and was not pursued any further. […] In spite of such differences, which might reflect both the heterogeneity of the surface and the different chemistry of immobilization, interaction results were consistent with one another. […] It should be noted that both Huang et al.[7] and Häger et al.[3] used peptides from mouse integrin, while we used the corresponding human sequences, which in the case of α7B_C lacks the tryptophan residue present in the mouse sequence. It is not uncommon that fluorescence spectroscopy interaction studies based on the peptide intrinsic fluorescence (CIB2 has no tryptophan residue) reveal some non-specific binding, especially when a highly hydrophobic protein such as CIB2 is the ligand. […] It cannot be excluded that a similar phenomenon occurred for murine α7B_C in the work by Häger et al.[3]. Our present results, based on accurate, label-free interaction studies clearly identify the region covered by α7B_M as the preferential binding site of CIB2 with α7B integrin.
SPR titrations of α7B_M over homogeneously coupled CIB2 (approach 1) gave very reproducible results and were performed both in the presence of 1 mM Mg^2+ and in the co-presence of 1 mM Mg^2+ and 2 mM Ca^2+. Peptide concentration was varied in the 230 nM–30 μM range. As anticipated, sensorgrams could not fit to a 1:1 binding model, and the kinetic model that better fit the data was a bivalent analyte model (see Methods), in which one α7B_M peptide could bind to two CIB2 molecules. According to this scheme, binding of the peptide to the first CIB2 molecule would direct the binding to the second one, thus resulting in two sets of kinetic constants.
Details of the protein and peptide immobilization procedures and experimental settings are elucidated in the Supplementary Information.
Kinetic data were fitted according to a bivalent analyte model, were a CIB2 monomer (L) can bind an α7B_M peptide (A), and the resulting complex (AL) can bind to a second CIB2 molecule (AL2), with all processes being possibly reversible, as follows: A+L→ka1ALAL→kd1A+LAL+L→ka2AL2AL2→kd2AL+L […]

[2] = CIB2 stability at 25 °C without trypsin (SDS-PAGE); format: physicochemical; conditions: 10 µM CIB2, 10 minutes at 25 °C; EDTA, Mg^2+, Mg^2+ + Ca^2+
Description: Figure 5 CIB2 limited proteolysis. (A) 10 µM CIB2 was incubated at 25 °C in the presence of 1 mM EDTA (Apo), 500 µM EGTA + 1 mM Mg^2+ (Mg^2+) and 1 mM Mg^2+ + 2 mM Ca^2+ for 10 minutes at 25 °C. Samples were boiled and loaded in a 18% SDS polyacrylamide gel. (B) Limited proteolysis was performed incubating trypsin with 25 µM CIB2 in the same concentrations of ions used for (A) (protein:enzyme ratio was 100:1). Samples were collected at different times, boiled and loaded on a 18% SDS-PAGE. Both gels run for 45–50 min, then they were Coomassie Blue-stained. The figure results from two separate gels, which have been reported in full length in Fig. S6.

[3] = reducing conditions, different cation-bound states; cited from earlier work
From the text: Moreover, DLS experiments performed with the samples collected immediately after elution from the SEC column measured a relatively high hydrodynamic diameter (d^Mg = 8.43 nm and d^Ca = 8.18 nm), which was also interpreted as an evidence of a dimeric protein[8]. […] According to a calibration curve obtained with globular proteins of known MW, these bands would correspond to an apparent MW (MW^SEC) of 35.9 kDa in the absence and of 36.7 kDa in the presence of the cross-linker, thus very similar to those obtained in our previo ...

| Molecule | SPR interaction with CIB2 ([1]; His-CIB2 capture (7.5 µM peptide, or 230 nM–30 μM) and amine-coupled untagged CIB2 (7.5–30 µM), 1 mM Mg^2+, 2 mM Ca^2+, experiments repeated 4 times) | first-event affinity in Mg^2+ + Ca^2+ compared to Mg^2+ alone ([1]; KD^app1) | faster dissociation of the second CIB2 molecule in co-presence of Mg^2+ and Ca^2+ ([1]; Mg^2+ + Ca^2+ vs Mg^2+) [times] | affinity for CIB2 ([1]; SPR) | ka2 association rate constant, CIB2-α7B_M-CIB2 complex ([1]; bivalent analyte model, 1 mM Mg^2+ 2 mM Ca^2+, pH 7.5, N = 15) | ka2 association rate constant, CIB2-α7B_M-CIB2 complex ([1]; bivalent analyte model, 1 mM Mg^2+, 230 nM–30 μM, pH 7.5, N = 16) | kon ([1]; bivalent analyte model, 1 mM Mg^2+, 20 mM HEPES pH 7.5, 150 mM KCl, 1 mM DTT, 50 µM EDTA, 0.005% Tween, N = 16) [M⁻¹ s⁻¹] | association of first CIB2 faster in sole Mg^2+ vs co-presence of Ca^2+ (fold) ([1]; first binding event, Mg^2+ vs Mg^2+ + Ca^2+) | dissociation from CIB2 ([1]; followed for 240 s, flow rate 20 μl min−1) | koff ([1]; pH 7.5, bivalent analyte model, 1 mM Mg^2+ 2 mM Ca^2+, pH 7.5, N = 15, read-out: kd1 dissociation rate constant, CIB2-α7B_M complex) [s⁻¹] | koff ([1]; pH 7.5, bivalent analyte model, 1 mM Mg^2+ 2 mM Ca^2+, pH 7.5, N = 15, read-out: kd2 dissociation rate constant, CIB2-α7B_M-CIB2 complex) [s⁻¹] | koff ([1]; pH 7.5, bivalent analyte model, 1 mM Mg^2+, 230 nM–30 μM, pH 7.5, N = 16, read-out: kd1 dissociation rate constant, CIB2-α7B_M complex) [s⁻¹] | koff ([1]; pH 7.5, bivalent analyte model, 1 mM Mg^2+, 230 nM–30 μM, pH 7.5, N = 16, read-out: kd2 dissociation rate constant, CIB2-α7B_M-CIB2 complex) [s⁻¹] | kon ([1]; pH 7.5, bivalent analyte model, 1 mM Mg^2+ 2 mM Ca^2+, pH 7.5, N = 15) [M⁻¹ s⁻¹] | Kd ([1]; 1 mM Mg^2+ 2 mM Ca^2+, pH 7.5, N = 15) [µM] | Kd ([1]; 1 mM Mg^2+, pH 7.5, N = 16) [µM] | association of second CIB2 faster in sole Mg^2+ vs co-presence of Ca^2+ (fold) ([1]; second binding event, Mg^2+ vs Mg^2+ + Ca^2+) | degradation without trypsin [2] | apparent MW (MW^SEC), previous work [3] |
| --- | --- | --- | --- | --- | --- | --- | --- | --- | --- | --- | --- | --- | --- | --- | --- | --- | --- | --- | --- |
| CSCC[C@H](NC(=O)[C@H](CCCCN)NC(=O)[C@H](Cc1c[nH]c2ccccc12)NC(=O)[C@H](CC(C)C)NC(=O)[C@H](CC(C)C)NC(=O)[C@H](CC(C)C)NC(C)=O)C(=O)NCC(=O)N[C@@H](Cc1ccccc1)C(=O)N[C@@H](Cc1ccccc1)C(=O)N[C@@H](CCCCN)C(=O)N[C@@H](CCCNC(=N)N)C(=O)N[C@@H](C)C(=O)N[C@@H](CCCCN)C(=O)N[C@@H](Cc1c[nH]cn1)C(=O)N1CCC[C@H]1C(=O)N[C@@H](CCC(=O)O)C(N)=O [α7B_M] (Ac-LLLWKMGFFKRAKHPE-NH2) | binds to CIB2 significantly stronger than the control peptide α7B_Scrb | roughly half affinity | 2.5 | relatively low affinity interaction | (4.2 ± 0.5) × 10^−4 RU^−1s^−1 | (1.9 ± 0.4) × 10^−3 RU^−1s^−1 | 31000 | 2 | complete protein-peptide dissociation | 0.4 | 0.053 | 0.36 | 0.02 | 16000 | 25 ± 5 | 11.6 ± 1.8 | 5 | – | – |
| B1 | – | – | – | – | – | – | – | – | – | – | – | – | – | – | – | – | – | some propensity to degradation | 37–39 kDa |
